Earlier results as cited in US20260224647A1, “Microbial compositions for treating joint inflammation” (Katholieke Universiteit Leuven, priority 2023, published 2026).

Tested on: rheumatoid arthritis
Conditions: twice daily administration

**Q.** Which “Activity of rheumatoid arthritis” value does the source give for Lactobacillus rhamnosus GG here?
**A.** The value was “no statistically significant differences”.
